# From patent US8044069B2, “Compounds as calcium channel blockers” (Abbott Laboratories, priority 2008, dated 2011)
# Experiments:
# Sprague Dawley rats = experiment: Capsaicin induced secondary mechanical hyperalgesia model; type: in vivo; conditions: Rattus norvegicus, po, 1 h; 30 mg/kg p.o., 60 minutes before testing; secondary mechanical hyperalgesia 180 minutes after capsaicin; von Frey paw withdrawal threshold
# Method: (ii) In Vivo Data—Capsaicin Induced Secondary Mechanical Hyperalgesia Model:
# Sprague Dawley rats were briefly restrained, and capsaicin was administered at 10 μg in 10 μL of vehicle by intraplantar injection into the center of the right hind paw. Secondary mechanical hyperalgesia (SMH) was measured at the heel away from the site of injection 180 minutes following capsaicin exposure. Compounds and gabapentin (positive control), were administered p.o. 60 minutes before testing (2 hours after capsaicin) or i.p. 30 minutes before testing (2.5 hours after capsaicin). SMH was measured using calibrated von Frey filaments (Stoelting, Woodale, Ill.). Following the 1 hour habituation in the testing room, rats were moved to individual plexiglass chambers that sit on top of a wire mesh to allow for access for stimulation of the plantar surface of the hind paws. Rats were allowed to acclimate to the new chambers for 15 minutes before the onset of testing. The paw withdrawal threshold was determined by increasing and decreasing stimulus intensity (force: g) and calculated using Dixon's up-down method (Chaplan, S. R.; Bach, F. W.; Pogrel, J. W.; Chung, J. M.; Yaksh, T. L.; Quantitative assessment of tactile allodynia in the rat paw. J. Neuroscience Methods 1994, 53(1), 55-63). The filaments (maximum force of 15.0 g) were held in place for 8 seconds or until there was a withdrawal response from the mechanical stimulation.
# human Cav2.2 = human Cav2.2 (Homo sapiens, UniProt Q00975); experiment: Assessment of calcium channel activity using FLIPR (Ca2+ influx in IMR32 cells); type: cell-based; conditions: IMR32 cells endogenously expressing human Cav2.2; 60 minute pre-incubation; 2 μM nifedipine; depolarized with 80 mM KCl, 5 mM CaCl2
# Method in brief: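 FLIPR measured Ca2+ influx triggered by 80 mM KCl depolarization together with a step to 5 mM external CaCl2. Percent inhibition relative to uninhibited activity was fitted sigmoidally for IC50.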
# Chain of human Cav2.2 (Q00975 whole entry): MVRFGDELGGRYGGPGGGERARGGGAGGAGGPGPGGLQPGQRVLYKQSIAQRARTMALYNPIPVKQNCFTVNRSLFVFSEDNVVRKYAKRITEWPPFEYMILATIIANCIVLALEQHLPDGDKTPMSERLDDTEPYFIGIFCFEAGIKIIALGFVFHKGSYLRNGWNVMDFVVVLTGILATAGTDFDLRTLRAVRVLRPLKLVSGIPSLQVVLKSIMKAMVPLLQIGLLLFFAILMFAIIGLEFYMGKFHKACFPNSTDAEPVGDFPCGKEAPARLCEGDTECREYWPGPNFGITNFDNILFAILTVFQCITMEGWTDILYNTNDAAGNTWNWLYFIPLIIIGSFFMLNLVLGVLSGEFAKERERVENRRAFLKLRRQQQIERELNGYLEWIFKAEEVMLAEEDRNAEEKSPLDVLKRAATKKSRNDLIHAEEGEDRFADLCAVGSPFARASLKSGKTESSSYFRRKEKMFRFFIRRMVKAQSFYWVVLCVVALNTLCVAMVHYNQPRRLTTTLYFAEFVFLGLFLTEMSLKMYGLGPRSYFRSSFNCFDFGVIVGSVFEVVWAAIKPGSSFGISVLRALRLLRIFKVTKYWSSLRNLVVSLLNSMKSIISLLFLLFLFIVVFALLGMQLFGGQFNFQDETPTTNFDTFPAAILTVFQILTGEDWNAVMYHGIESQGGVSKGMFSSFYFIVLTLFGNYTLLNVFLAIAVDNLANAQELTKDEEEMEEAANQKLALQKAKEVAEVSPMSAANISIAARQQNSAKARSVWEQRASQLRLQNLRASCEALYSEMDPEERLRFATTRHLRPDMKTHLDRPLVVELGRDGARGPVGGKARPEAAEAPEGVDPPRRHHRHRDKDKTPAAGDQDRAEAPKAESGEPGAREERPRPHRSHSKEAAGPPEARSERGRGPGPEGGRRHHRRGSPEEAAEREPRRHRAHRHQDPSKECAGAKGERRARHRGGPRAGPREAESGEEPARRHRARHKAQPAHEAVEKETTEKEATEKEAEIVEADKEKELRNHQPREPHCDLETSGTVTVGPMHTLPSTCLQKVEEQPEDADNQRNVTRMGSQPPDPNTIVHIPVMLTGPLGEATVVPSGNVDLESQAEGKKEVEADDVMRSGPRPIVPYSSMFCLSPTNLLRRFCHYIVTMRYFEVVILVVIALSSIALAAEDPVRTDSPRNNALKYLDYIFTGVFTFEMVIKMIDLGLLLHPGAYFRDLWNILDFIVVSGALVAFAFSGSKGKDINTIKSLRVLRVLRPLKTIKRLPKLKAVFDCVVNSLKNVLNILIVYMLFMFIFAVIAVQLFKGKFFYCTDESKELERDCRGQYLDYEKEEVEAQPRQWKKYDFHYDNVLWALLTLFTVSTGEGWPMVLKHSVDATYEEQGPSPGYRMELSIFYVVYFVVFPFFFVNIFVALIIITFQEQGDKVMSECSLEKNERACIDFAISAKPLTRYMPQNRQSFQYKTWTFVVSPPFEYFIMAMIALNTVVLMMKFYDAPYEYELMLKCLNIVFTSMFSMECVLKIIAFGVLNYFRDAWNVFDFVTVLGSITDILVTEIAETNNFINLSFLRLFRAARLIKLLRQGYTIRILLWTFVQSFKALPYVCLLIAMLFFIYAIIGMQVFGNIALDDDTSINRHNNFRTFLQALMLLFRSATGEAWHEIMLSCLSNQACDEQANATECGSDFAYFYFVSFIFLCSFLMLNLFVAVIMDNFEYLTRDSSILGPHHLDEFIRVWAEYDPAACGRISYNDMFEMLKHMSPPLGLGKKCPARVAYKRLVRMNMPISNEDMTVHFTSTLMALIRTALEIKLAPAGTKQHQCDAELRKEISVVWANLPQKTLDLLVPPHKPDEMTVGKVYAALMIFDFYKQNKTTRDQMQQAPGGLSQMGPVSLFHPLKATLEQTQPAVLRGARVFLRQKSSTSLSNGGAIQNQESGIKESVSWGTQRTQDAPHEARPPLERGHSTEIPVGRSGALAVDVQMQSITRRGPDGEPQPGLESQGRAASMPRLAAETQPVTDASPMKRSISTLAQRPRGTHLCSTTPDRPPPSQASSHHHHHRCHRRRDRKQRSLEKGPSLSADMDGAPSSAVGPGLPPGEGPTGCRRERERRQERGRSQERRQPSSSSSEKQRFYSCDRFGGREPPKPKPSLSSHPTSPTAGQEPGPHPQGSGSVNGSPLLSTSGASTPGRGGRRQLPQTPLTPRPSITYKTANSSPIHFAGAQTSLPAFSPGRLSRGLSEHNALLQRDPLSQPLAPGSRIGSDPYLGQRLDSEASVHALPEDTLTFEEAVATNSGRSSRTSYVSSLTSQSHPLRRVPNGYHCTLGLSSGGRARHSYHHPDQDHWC
# Chain of human Cav2.2 (P54289 25-951 partner limits assumed): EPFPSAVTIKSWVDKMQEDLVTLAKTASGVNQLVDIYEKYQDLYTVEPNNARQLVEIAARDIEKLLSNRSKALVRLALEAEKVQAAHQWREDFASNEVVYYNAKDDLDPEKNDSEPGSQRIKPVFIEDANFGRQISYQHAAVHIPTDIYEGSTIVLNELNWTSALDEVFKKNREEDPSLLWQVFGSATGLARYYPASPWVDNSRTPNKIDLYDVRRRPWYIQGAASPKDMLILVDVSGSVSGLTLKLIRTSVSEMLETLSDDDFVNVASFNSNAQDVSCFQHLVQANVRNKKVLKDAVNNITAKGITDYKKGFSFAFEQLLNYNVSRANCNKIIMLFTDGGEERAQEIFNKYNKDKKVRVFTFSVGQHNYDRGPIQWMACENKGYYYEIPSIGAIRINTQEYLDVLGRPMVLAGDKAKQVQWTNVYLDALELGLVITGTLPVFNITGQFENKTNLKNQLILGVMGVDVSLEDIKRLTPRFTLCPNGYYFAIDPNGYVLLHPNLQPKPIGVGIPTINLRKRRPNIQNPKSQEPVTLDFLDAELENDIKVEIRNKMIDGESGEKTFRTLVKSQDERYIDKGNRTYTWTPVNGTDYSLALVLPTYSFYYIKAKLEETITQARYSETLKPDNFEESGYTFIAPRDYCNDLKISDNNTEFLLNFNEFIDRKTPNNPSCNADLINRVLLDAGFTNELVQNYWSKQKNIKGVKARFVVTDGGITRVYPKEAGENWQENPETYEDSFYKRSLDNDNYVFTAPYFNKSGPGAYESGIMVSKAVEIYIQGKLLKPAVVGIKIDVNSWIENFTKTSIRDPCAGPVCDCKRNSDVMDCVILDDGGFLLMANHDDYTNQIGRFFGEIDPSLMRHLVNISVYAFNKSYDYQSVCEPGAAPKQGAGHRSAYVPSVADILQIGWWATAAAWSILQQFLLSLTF
# Chain of human Cav2.2 (P54289 952-1103 partner limits assumed): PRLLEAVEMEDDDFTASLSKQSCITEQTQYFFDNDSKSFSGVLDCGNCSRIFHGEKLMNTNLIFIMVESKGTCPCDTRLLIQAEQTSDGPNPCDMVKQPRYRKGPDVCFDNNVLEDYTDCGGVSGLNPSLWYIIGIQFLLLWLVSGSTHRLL
# Chain of human Cav2.2 (P54284 whole entry partner): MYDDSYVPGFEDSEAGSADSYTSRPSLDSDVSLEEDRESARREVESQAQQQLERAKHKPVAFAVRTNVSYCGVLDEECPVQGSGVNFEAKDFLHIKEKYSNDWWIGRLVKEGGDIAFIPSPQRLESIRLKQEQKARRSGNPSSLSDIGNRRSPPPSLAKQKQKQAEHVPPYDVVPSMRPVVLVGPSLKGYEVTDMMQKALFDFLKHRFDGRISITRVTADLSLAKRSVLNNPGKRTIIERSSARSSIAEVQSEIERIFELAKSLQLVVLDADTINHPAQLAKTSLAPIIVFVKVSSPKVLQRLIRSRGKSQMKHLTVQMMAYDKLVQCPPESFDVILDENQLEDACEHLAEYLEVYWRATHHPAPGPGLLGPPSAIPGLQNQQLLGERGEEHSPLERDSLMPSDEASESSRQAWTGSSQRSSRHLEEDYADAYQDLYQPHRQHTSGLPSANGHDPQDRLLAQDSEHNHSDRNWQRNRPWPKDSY
SMILES,inhibition in vivo at 30 mg/kg (Sprague Dawley rats),IC50 (human Cav2.2)
"O=C(CN1CCC(c2ccccc2)(c2ccccc2)C1=O)N1CCN(C(c2ccc(F)cc2)c2ccc(F)cc2)CC1 [Example 45, 1-(2-{4-[bis(4-fluorophenyl)methyl]piperazin-1-yl}-2-oxoethyl)-3,3-diphenylpyrrolidin-2-one]",51%,430 nM
"O=C(CN1CCC(c2ccc(F)cc2)(c2ccc(F)cc2)C1=O)N1CCN(C(c2ccccc2)c2ccccc2)CC1 [Example 58, 1-[2-(4-benzhydrylpiperazin-1-yl)-2-oxoethyl]-3,3-bis(4-fluorophenyl)pyrrolidin-2-one]",97%,830 nM
"O=C(CN1CCCC(c2ccccc2)(c2ccccc2)C1=O)N1CCN(C(c2ccccc2)c2ccccc2)CC1 [Example 68, 1-[2-(4-benzhydrylpiperazin-1-yl)-2-oxoethyl]-3,3-diphenylpiperidin-2-one]",71%,1380 nM
"O=C(CN1CCCC(c2ccccc2)(c2ccccc2)C1=O)N1CCC(c2ccccc2)(c2ccccc2)CC1 [Example 72, 1-[2-(4,4-diphenylpiperidin-1-yl)-2-oxoethyl]-3,3-diphenylpiperidin-2-one]",78%,660 nM
"O=C(CN1CCCC(c2ccccc2)(c2ccccc2)C1=O)N1CCN(Cc2cccc(C(F)(F)F)c2)CC1 [Example 79, 1-(2-oxo-2-{4-[3-(trifluoromethyl)benzyl]piperazin-1-yl}ethyl)-3,3-diphenylpiperidin-2-one]",49%,930 nM
"O=C(CN1CCCC(c2ccccc2)C1=O)N1CCN(C(c2ccccc2)c2ccccc2)CC1 (stereo not drawn) [Example 91, 1-[2-(4-benzhydrylpiperazin-1-yl)-2-oxoethyl]-3-phenylpiperidin-2-one]",58%,2180 nM
